Reference: patent US9526680B2, “Method for searching for malodor control agent, malodor control agent, and malodor control method” (Kao Corporation, priority 2010, dated 2016)

Legend:
OR2W1 = biological target: T1, OR2W1 (Homo sapiens, UniProt Q9Y3N9); assay: Luciferase reporter gene assay, OR2W1 expressed in HEK293 cells; format: cell-based; settings: for Inhibition ratio of OR2W1 response: response to hexanoic acid, test substance added together with hexanoic acid, HEK293
T1 construct: expressed in transfected cells; host or cells: HEK293
T1 sequence (Q9Y3N9 1-320): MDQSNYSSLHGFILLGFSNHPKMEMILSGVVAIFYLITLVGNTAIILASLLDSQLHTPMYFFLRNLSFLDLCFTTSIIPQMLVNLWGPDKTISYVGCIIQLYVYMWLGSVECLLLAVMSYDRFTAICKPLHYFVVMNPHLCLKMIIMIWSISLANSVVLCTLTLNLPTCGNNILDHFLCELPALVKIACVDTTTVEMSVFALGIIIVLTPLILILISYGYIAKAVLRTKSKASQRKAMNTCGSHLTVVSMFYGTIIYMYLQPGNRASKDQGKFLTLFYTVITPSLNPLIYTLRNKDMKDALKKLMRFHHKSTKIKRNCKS
Description: (§1) Cloning of human olfactory receptors was performed based on the sequence information registered in GenBank, through PCR with human genomic DNA female (G1521: Promega) as a template. Each of the genes amplified through PCR was inserted into a pENTR vector (Invitrogen) according to an instruction manual. Then, the gene-inserted vector was digested with NotI and AscI, and the obtained fragments were inserted into NotI and AscI sites located downstream of the Flag-Rho tag sequence in the pME18S vector.
(§2) Each of the 350 types of human olfactory receptors was expressed in HEK293 cells. A reaction solution having a composition shown in Table 2 was prepared on a clean bench, and left to stand for 15 minutes. The solution was dispensed to each well of a 96-well plate (BD). Subsequently, […] cells (100 μL, 3×10^5 cells/cm^2) were seeded in each well and cultured for 24 hours in an incubator at 37° C. and under 5% CO2 conditions.
(§3) The olfactory receptor expressed in HEK293 cell was conjugated with cell-intrinsic Gas to activate adenylate cyclase, and thereby the level of intracellular cAMP was increased. For the measurement of the response to odor in this study, the luciferase reporter gene assay was used, in which an increase in the amount of intracellular cAMP was monitored by using the emission value originating from firefly luciferase gene (fluc2P-CRE-hygro) as an indicator. Furthermore, a gene product obtained by fusing renilla luciferase gene in the downstream of CMV promoter (hRluc-CMV) was simultaneously introduced, and this was used as an internal standard for correcting an error in the transgenesis efficiency or the number of cells. The medium was removed from the culture prepared in the above-described section 3) by using a Pipetman, and 75 μl of a solution containing an odor substance (1 mM hexanoic acid or 300 μM nonanoic acid) prepared in CD293 medium (Invitrogen) was added thereto. The cells were cultured for 4 hours in a CO2 incubator, and the luciferase gene was sufficiently expressed in the cells. For the measurement of luciferase activity, the measurement was carried out by using a Dual-Glo™ luciferase assay system (Promega) according to the operation manual of the product. A value calculated by dividing the emission value, derived from a firefly luciferase induced by the stimulation with an odor substance, by the emission value in cells that were not-stimulated with an odor substance, was designated as a fold increase, and used as an index of response intensity.
(§4) OR2W1, OR10A6, OR51E1, OR51I2, and OR51L1 were respectively expressed in HEK293 cells by the same method as that used in Example 1, and a luciferase assay was carried out. In the luciferase assay, hexanoic acid was used as the odorous substance, and test substances were added together with hexanoic acid. The response of the olfactory receptors to hexanoic acid was measured, and a decrease in the receptor response to the addition of test substances was evaluated.
(§5) The inhibition ratios of the receptor response to test substances were calculated as follows. The emission value (Y) obtained from the cells in which the same receptors were introduced but no odor stimulation was conducted, was subtracted from the emission value derived from firefly luciferase (X) induced by odor stimulation with hexanoic acid alone. Similarly, the emission value (Y) obtained from the cells in which no odor stimulation was conducted, was subtracted from the emission value (Z) caused by stimulation with a mixture of hexanoic acid and a test substance. By the following calculation formula, the inhibitory activity of the test substance to receptor response was calculated based on the increment of the emission value (X−Y) caused by stimulation of hexanoic acid alone. Multiple independent experiments were performed in duplicate, and the average of each experiment was obtained. Inhibition ratio (%)={1−(Z−Y)/(X−Y)}×100 […]

OR51E1 = biological target: T2, OR51E1 (Homo sapiens, UniProt Q8TCB6); assay: Luciferase reporter gene assay, OR51E1 expressed in HEK293 cells; format: cell-based; settings: for Inhibition ratio of OR51E1 response: response to hexanoic acid, test substance added together with hexanoic acid, HEK293
T2 construct: expressed in transfected cells; host or cells: HEK293
T2 sequence (Q8TCB6 1-318): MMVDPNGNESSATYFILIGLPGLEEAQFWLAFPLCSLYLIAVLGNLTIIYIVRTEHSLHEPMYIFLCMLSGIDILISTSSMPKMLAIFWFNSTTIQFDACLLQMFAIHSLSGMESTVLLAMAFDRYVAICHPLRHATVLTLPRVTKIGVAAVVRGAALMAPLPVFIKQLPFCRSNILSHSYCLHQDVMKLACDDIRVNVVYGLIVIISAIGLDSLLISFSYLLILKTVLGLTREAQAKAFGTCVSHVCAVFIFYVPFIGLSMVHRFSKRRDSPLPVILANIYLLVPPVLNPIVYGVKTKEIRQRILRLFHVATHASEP
Description: as §1, §2, §3, §4, §5

[1] = Sensory evaluation test of hexanoic acid odor inhibition; format: in vivo; settings: for Intensity of odor: hexanoic acid odor, malodor alone rated as 5, 0 to 10 points, test substance diluted 100 times with propylene glycol, three panelists; for Inhibition of hexanoic acid odor (in words): sensory test, test substance diluted 100 times with propylene glycol (FIG. 5, Table 4)
Description: Cotton balls were introduced into a glass bottle (Hakuyo Glass Co., Ltd. No. 11, capacity 110 ml), and hexanoic acid diluted 100 times with propylene glycol, nonanoic acid diluted 10 times with propylene glycol, or isovaleric acid diluted 1000 times with propylene glycol, as a malodor, and a test substance were added dropwise in an amount of […] to the cotton balls. The glass bottle was left to stand overnight at room temperature, and the odor molecules were sufficiently volatilized in the glass bottle. A sensory evaluation test was carried out by a panel of three panelists (5 panelists for isovaleric acid), and while the intensity of odor in the case of adding dropwise the malodor alone was rated as 5, the intensity of the malodor in the case of incorporating a test substance was evaluated on the basis of a system of 20 grades from 0 point to 10 points (0.5 points per grade).
Regarding the test substance, florhydral (Givaudan SA), bourgeonal (Givaudan SA), hydroxycitronellal (Givaudan SA, International Flavors & Fragrances, Inc., and the like), 4-isopropylcyclohexanecarbaldehyde (synthesized according to a method described in JP-A-2-188549), 4-(2-methoxyphenyl)-2-methyl-2-butanol (JP-A-9-111281), florosa (Givaudan SA), isocyclocitral (Givaudan SA, International Flavors & Fragrances, Inc., and the like), tripral (International Flavors & Fragrances, Inc.), and Pollenal II (Kao Corp.), which had been diluted 100 times with propylene glycol, were used for hexanoic acid; florhydral that had been diluted 10 times with propylene glycol was used for nonanoic acid; and florhydral that had been diluted 1000 times with propylene glycol was used for isovaleric acid.

OR51I2 = biological target: T3, OR51I2 (Homo sapiens, UniProt Q9H344); assay: Luciferase reporter gene assay, OR51I2 expressed in HEK293 cells; format: cell-based; settings: for Inhibition ratio of OR51I2 response: response to hexanoic acid, test substance added together with hexanoic acid, HEK293
T3 construct: expressed in transfected cells; host or cells: HEK293
T3 sequence (Q9H344 1-312): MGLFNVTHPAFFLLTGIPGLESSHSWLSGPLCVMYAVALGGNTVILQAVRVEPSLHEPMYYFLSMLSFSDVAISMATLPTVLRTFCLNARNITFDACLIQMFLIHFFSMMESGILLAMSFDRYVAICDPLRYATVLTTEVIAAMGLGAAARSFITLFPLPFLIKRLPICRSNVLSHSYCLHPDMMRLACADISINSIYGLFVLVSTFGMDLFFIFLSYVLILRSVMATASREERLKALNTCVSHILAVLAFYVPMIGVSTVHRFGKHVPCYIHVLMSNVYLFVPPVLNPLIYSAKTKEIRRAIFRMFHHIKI
Description: as §1, §2, §3, §4, §5

OR51L1 = biological target: T4, OR51L1 (Homo sapiens, UniProt Q8NGJ5); assay: Luciferase reporter gene assay, OR51L1 expressed in HEK293 cells; format: cell-based; settings: for Inhibition ratio of OR51L1 response: response to hexanoic acid, test substance added together with hexanoic acid, HEK293
T4 construct: expressed in transfected cells; host or cells: HEK293
T4 sequence (Q8NGJ5 1-315): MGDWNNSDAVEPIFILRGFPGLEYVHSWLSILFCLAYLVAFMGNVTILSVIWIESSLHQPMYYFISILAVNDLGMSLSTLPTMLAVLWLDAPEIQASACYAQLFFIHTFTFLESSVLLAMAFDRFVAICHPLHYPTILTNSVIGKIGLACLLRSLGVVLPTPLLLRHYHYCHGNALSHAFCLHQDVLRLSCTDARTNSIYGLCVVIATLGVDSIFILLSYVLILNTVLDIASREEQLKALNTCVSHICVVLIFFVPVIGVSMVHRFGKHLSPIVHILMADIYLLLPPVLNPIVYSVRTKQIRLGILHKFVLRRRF
Description: as §1, §2, §3, §4, §5

[2] = fold increase of luciferase emission, 1 mM hexanoic acid or 300 μM nonanoic acid, or concentration series up to 1000 μM
[3] = 1 mM hexanoic acid, test substance 3, 10, 30, 100, 300 μM (FIG. 4)

Row | Inhibition ratio of OR2W1 response (OR2W1) | Inhibition ratio of OR51E1 response (OR51E1) | Inhibition ratio of OR51I2 response (OR51I2) | Compound | Intensity of odor [1] | Inhibition of hexanoic acid odor (in words) [1] | other results
1 | 2 (Inhibition ratio: 20% to 50%) | – | – | Cc1cccc(CC(C)(C)CO)c1 [Majantol, 2,2-dimethyl-3-(3-methylphenyl)propanol] | – | – | –
2 | – | 2 (Inhibition ratio: 20% to 50%) | – | CC(C=O)C1CCCCC1 (centres unmarked) [Pollenal II, 2-cyclohexylpropanal] | 2.08 | inhibit the hexanoic acid odor | –
3 | – | – | 2 (Inhibition ratio: 20% to 50%) | CC(C)C1CCC(C)(CO)CC1 (centres unmarked) [4-Isopropyl-1-methylcyclohexylmethanol, 4-isopropyl-1-methylcyclohexylmethanol] | – | – | –
4 | – | – | 2 (Inhibition ratio: 20% to 50%) | CC(C=O)Cc1ccc(C(C)C)cc1 (centres unmarked) [Cyclamen aldehyde, 3-(4-isopropylphenyl)-2-methylpropanal] | – | – | –
5 | – | 2 (Inhibition ratio: 20% to 50%) | – | CC(C)=CCCC(C)CC=O (centres unmarked) [Citronellal, 3,7-dimethyl-6-octenal] | – | – | –
6 | – | 2 (Inhibition ratio: 20% to 50%) | 2 (Inhibition ratio: 20% to 50%) | CC(CC=O)CCCC(C)(C)O (centres unmarked) [Hydroxycitronellal, 3,7-dimethyl-7-hydroxyoctanal] | 2.25 | inhibit the hexanoic acid odor | Inhibition ratio of OR51L1 response (OR51L1): 2 (Inhibition ratio: 20% to 50%)
7 | 2 (Inhibition ratio: 20% to 50%) | – | 2 (Inhibition ratio: 20% to 50%) | CC(C=O)Cc1ccc(C(C)(C)C)cc1 (stereo not drawn) [Lilial, p-tert-butyl-α-methylhydrocinnamaldehyde] | – | – | –
8 | – | – | – | CC(C)CC(=O)O [isovaleric acid, reference compound] | – | – | Response of OR51E1 to the odor substance (OR51E1; [2]): concentration-dependent response; Response of OR51I2 to the odor substance (OR51I2; [2]): concentration-dependent response
9 | – | – | 2 (Inhibition ratio: 20% to 50%) | CC(C)C1CCC(C=O)CC1 (centres unmarked) [4-Isopropylcyclohexanecarbaldehyde, 4-isopropylcyclohexanecarbaldehyde] | 2.17 | inhibit the hexanoic acid odor | –
10 | – | – | 2 (Inhibition ratio: 20% to 50%) | CC(C)Cc1ccc(CC(C)C=O)cc1 (centres unmarked) [Suzaral, 3-(4-isobutylphenyl)-2-methyl-propionaldehyde] | – | – | –
11 | – | 1 (Inhibition ratio: 50% or higher) | 1 (Inhibition ratio: 50% or higher) | COC(C)(C)CCCC(C)CC=O (centres unmarked) [Methoxycitronellal, 7-methoxy-3,7-dimethyloctanal] | – | – | Inhibition ratio of OR51L1 response (OR51L1): 1 (Inhibition ratio: 50% or higher)
12 | 1 (Inhibition ratio: 50% or higher) | 1 (Inhibition ratio: 50% or higher) | 1 (Inhibition ratio: 50% or higher) | CC(C)(C)c1ccc(CCC=O)cc1 [Bourgeonal, 3-(4-tert-butylphenyl)propanal] | 3.13 | markedly inhibited | Inhibition of OR2W1 response to hexanoic acid (in words) (OR2W1; [3]): in a concentration-dependent manner; Inhibition of OR51E1 response to hexanoic acid (in words) (OR51E1; [3]): in a concentration-dependent manner; Inhibition of OR51L1 response to hexanoic acid (in words) (OR51L1; [3]): in a concentration-dependent manner; Inhibition ratio of OR51L1 response (OR51L1): 1 (Inhibition ratio: 50% or higher); Inhibition of OR51I2 response to hexanoic acid (in words) (OR51I2; [3]): in a concentration-dependent manner
13 | 1 (Inhibition ratio: 50% or higher) | – | – | COc1ccccc1CCC(C)(C)O [4-(2-Methoxyphenyl)-2-methyl-2-butanol, 4-(2-methoxyphenyl)-2-methyl-2-butanol] | 3.88 | inhibit the hexanoic acid odor | –
14 | – | – | – | CC1=CC(C)C(C=O)CC1 (centres unmarked) [Tripral, 2,4-dimethyl-3-cyclohexane-1-carboxyaldehyde] | 2.00 | inhibit the hexanoic acid odor | Inhibition ratio of OR51L1 response (OR51L1): 2 (Inhibition ratio: 20% to 50%)
15 | 1 (Inhibition ratio: 50% or higher) | – | – | CC1(C)CCCC2=C1CC(C=O)CC2 (centres unmarked) [Cyclemon A, 1,2,3,4,5,6,7,8-octahydro-8,8-dimethyl-2-naphthalenecarboxyaldehyde] | – | – | –

Row | Compound | Inhibition ratio of OR2W1 response (OR2W1) | Inhibition ratio of OR51E1 response (OR51E1) | Inhibition ratio of OR51I2 response (OR51I2) | Intensity of odor [1] | Inhibition of hexanoic acid odor (in words) [1] | other results
16 | CC(C)c1ccc(C=O)cc1 [Cuminaldehyde, 4-isopropylbenzaldehyde] | – | – | 2 (Inhibition ratio: 20% to 50%) | – | – | –
